From patent US9714245B2, “Carboline compounds usable in the treatment of neurodegenerative diseases” (ALZPROTECT, priority 2013, dated 2017)

Legend:
[1] = system: AICD; test: Quantification of AICD by Western blot in SY5Y-APPWT cells; type: cell-based, Human; conditions: compared to a control with a value of 100
Protocol: Quantifications of APP-CTFs and AICD
After treatment, SY5Y-APP^WT cells were scrapped and lysed in 1× Lysis Buffer (250 mM NaCl, 50 mM Tris, pH 8.8, 5 mM EDTA, 2.5% Triton X-100, 1% Deoxycholate, 0.1% SDS). For the Western blotting, an equal amount of total proteins (20 μg/lane) was loaded on a 16.5% Tris-Tricine or 8-16% Tris-Glycine polyacrylamide gel.
SDS-polyacrylamide gel electrophoresis (PAGE) was performed using the Criterion™ Tris-Tricine-precast or Bis-Tris-precast criterion gels (Bio-Rad Bioresearch division). Proteins were transferred to a […] nitrocellulose membrane (Hybond, Amersham Biosciences) at 2.5 mA/cm2 per gel using the Criterion™ Blotter system (Amersham Biosciences), according to the manufacturer's instructions. Proteins were reversibly stained with Ponceau Red in order to check the quality of the transfer of protein. The membranes were blocked in 25 mM Tris-HCl pH 8.0, 150 mM NaCl, 0.1% Tween-20 (v/v) and 5% (w/v) of skimmed milk for 30 min. Membranes were incubated overnight at 4° C. with appropriate dilution of the primary antibodies, and were incubated for 1 h at room temperature with secondary antibody. […] Quantifications were calculated with Image J software (NIH) and the data were collected using Excel Software (Microsoft). The loading variations between Western blot lanes were normalized according to the tubulin signal. Quantification of CTFα and AICD were compared to control conditions (considered as 100 in arbitrary units) and are presented for two concentrations of the drug: 1 and 10 μM.

[2] = system: sAPPα; test: Soluble APPα quantification (ELISA); type: cell-based, Human; conditions: 24 h, control considered as 100
Protocol: Soluble APPα Quantification
Human neuroblastoma cell line SKNSH-SYSY APP′ was cultured in Dulbecco's modified Eagle medium (Invitrogen) supplemented with 10% fetal calf serum (PAA), 2 mM L-glutamine (Invitrogen), 1 mM non-essential amino acids (Invitrogen), 50 units/ml penicillin/streptomycin (Invitrogen), and 200 μg G418=geneticin (Invitrogen) (selection for cell expressing APP) in a 5% CO2 humidified incubator at 37° C. Cells were counted and seed at 400000 cells/well into a 12-wells plate for 24 h. The day after, cells were treated with 700 μL/well of drug at 0.3; 1; 3 and 10 μM and incubated for 24 h in a 5% CO2 incubator at 37° C. After treatment, culture medium samples were collected and stored at −80° C. until analysis. Samples corresponding to the 1 and 10 μM treatment were centrifuged 1500 rpm for 5 min at 4° C. sAPPα quantification by ELISA was done with Human sAPPα Assay Kit-IBL (Cat#27734) in accordance with manufacturer's protocol. Samples were diluted at 1:150 in the diluent buffer provided in the kit. Each sample was loaded in duplicate onto the 96 well-plate. Results are expressed in ng/ml and then compared to control conditions (considered as 100 in arbitrary units) and are presented for two concentrations of the drug: 1 and 10 μM.

[3] = target: T1, HIS-tagged valosin-containing protein/p97 (VCP/p97) (Homo sapiens, UniProt P55072); test: VCP interaction assay (competition with biotinylated probe 4.7); type: binding; conditions: compound 60 μM against biotinylated probe 4.7 20 μM
T1 construct: purchased TebuBio
T1 sequence (P55072 whole entry): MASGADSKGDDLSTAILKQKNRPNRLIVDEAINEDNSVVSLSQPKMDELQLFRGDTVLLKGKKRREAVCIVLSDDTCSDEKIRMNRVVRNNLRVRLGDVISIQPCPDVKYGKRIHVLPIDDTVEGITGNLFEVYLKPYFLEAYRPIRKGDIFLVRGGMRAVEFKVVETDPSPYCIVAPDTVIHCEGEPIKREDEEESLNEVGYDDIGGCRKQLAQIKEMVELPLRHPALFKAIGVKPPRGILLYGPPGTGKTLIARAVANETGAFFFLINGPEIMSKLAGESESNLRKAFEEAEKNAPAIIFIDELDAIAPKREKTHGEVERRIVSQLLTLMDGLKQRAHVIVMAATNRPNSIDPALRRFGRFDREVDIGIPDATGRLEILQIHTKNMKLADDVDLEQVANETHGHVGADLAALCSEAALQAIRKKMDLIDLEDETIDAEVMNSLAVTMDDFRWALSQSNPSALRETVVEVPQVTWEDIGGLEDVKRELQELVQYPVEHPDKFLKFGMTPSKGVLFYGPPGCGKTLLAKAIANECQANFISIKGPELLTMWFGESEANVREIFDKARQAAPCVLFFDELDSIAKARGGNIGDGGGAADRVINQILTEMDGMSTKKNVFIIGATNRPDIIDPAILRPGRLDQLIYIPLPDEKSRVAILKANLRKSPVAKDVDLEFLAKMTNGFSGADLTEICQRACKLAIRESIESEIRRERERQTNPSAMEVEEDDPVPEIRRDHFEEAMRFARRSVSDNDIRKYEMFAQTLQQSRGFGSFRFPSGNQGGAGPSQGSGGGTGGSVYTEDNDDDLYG
Protocol: Physical interaction between HIS-tagged valosin-containing protein/p97 (VCP/p97) (TebuBio) and biotinylated probe 4.7 was investigated by Enzyme-Linked Assay (ELA) based on HIS-Select® High Sensitivity Nickel coated plates, used following manufacturer's recommendations (Sigma Aldrich). Other chemical compounds were tested in competition with the biotinylated probe 4.7 in this system. Briefly, nickel beads were incubated overnight at 4° C. with 2% casein blocking solution. After a three-time rinse with wash buffer (0.05% Tween20 in phosphate buffer saline), HIS-tagged VCP/p97 protein (5 μg/ml in PBS) was incubated with nickel beads for 90 min at 25° C. Then, the plate was washed three times. Chemical compounds (60 μM) were incubated 10 min at 25° C. before addition of biotinylated probe 4.7 (20 μM) 30 min at 25° C. After five washes, streptavidin-peroxidase (2 μg/ml) was added during 1 h at 25° C., followed by the peroxidase substrate addition 30 min at RT. Reaction was stopped with 0.5M H2SO4 solution and the optical density was read at 450 nm using a microplate reader (VICTOR X4 Wallac, 2030-0040, PerkinElmer). Competition efficiency was quantified by the loss of signal compared to the control condition.

- VCP (competition efficiency, loss of signal compared to the control) [3]: 96%
SMILES: CC(C)CN(CCCN1CCN(CCCN2CCc3[nH]c4ccc(F)cc4c3C2)CC1)CC(C)C [Compound 3.1d, N,N-diisobutyl-3-(4-(3-(8-fluoro-1,3,4,5-tetrahydro-1H-pyrido[4,3-b]indol-2-yl)propyl)piperazin-1-yl)propylamine]
- AICD (10 μM) [1]: 84225 arbitrary units
- sAPPα (10 μM) [2]: 166 arbitrary units
